Patent US4803224A, “Antiviral antibiotic complex” (Bristol-Myers Company, priority 1986, dated 1989)
Entries after “also recorded” stand apart in the source; their conditions may differ. Read-outs that look alike come from different tables or passages of the source.

Key:
Format in all cases: cell-based
[1] = tested on: Bacillus subtilis PCI-219; test: Paper disc-agar diffusion method; details: "are believed to be"
Excerpt: (§1) The production of BU-2231 in the fermentation medium may be followed readily during the course of fermentation by the paper disc-agar diffusion method using Bacillus subtilis PCI-219 and Mycobacterium smegmatis strain M6-3 as test organisms. The BU-2231 A and BU-2231 B components of BU-2231 antibiotic complex as well as the co-produced aminoglycoside complex (also referred to as the "nebramycin factors" or "nebramycin components") are believed to be active against B. subtilis but only the BU-2231 A and B comppnents show activity against Mycobacterium smegmatis strain M6-3.

[2] = tested on: Mycobacterium smegmatis strain M6-3; test: Paper disc-agar diffusion method
Excerpt: as §1

[3] = tested on: herpes simplex virus type I (HSV-1); test: Dye-uptake assay, HSV-1-Vero cell system; details: for Dye-uptake assay, Activity vs HSV-1 (ID50): Vero cell
Method: (§2) The results are shown in Table 2 together with their cytotoxicity against the host cells.
In order to examine the relationship between peptide chain length and antiviral activity, a partial acid hydrolysis of BU-2231 V was carried out by heating with 6N HCl at 100 deg. C. for one hour. The hydrolyzate was chromatographed on CM-cellulose to yield 8 peptide fragments. Number of D-α,γ-diaminobutyric acid residues in each peptide was determined by the DNP method and antiviral activity against HSV-1 assessed by the dye-uptake assay (Table 4).

[4] = tested on: Haemophilus influenza A2241; test: 2-fold serial broth dilution, nutrient broth
[5] = tested on: Staphylococcus aureus Smith; test: 2-fold serial broth dilution, nutrient broth
[6] = tested on: Klebsiella pneumoniae A9977; test: 2-fold serial broth dilution, nutrient broth
[7] = tested on: Staphylococcus aureus BX-1633-2; test: 2-fold serial broth dilution, nutrient broth
[8] = tested on: Serratia marcescens A20019; test: 2-fold serial broth dilution, nutrient broth
[9] = tested on: Streptococcus faecalis A9612; test: 2-fold serial broth dilution, nutrient broth
[10] = tested on: Pseudomonas aeruginosa A9930; test: 2-fold serial broth dilution, nutrient broth
[11] = tested on: Gram-positive and Gram-negative bacteria; test: In vitro antibacterial activity, 2-fold serial broth dilution, overall
Escherichia coli Juhl = test: 2-fold serial broth dilution, nutrient broth
[12] = tested on: Enterobacter cloacae A9656; test: 2-fold serial broth dilution, nutrient broth
Proteus mirabilis A9554 = test: 2-fold serial broth dilution, nutrient broth
[13] = tested on: herpes simplex virus type I (HSV-1); test: Plaque reduction assay, HSV-1-Vero cell system; details: for Antiviral activity (in words): HSV-1, relative to the compounds tested; for Plaque reduction assay, Activity vs HSV-1 (ID50): Vero cell
Vero cell [14] = test: Cytotoxicity against host cells (plaque reduction assay)
Excerpt: as §2

Vero cell [15] = test: Cytotoxicity against host cells (dye-uptake assay)
Excerpt: as §2

Compound | Activity against B. subtilis (in words) [1] | Activity against Mycobacterium smegmatis strain M6-3 (in words) [2] | MIC by TDT [4] [µg/mL] | MIC by TDT [5] [µg/mL] | MIC by TDT [6] [µg/mL] | MIC by TDT [7] [µg/mL] | MIC by TDT [8] [µg/mL] | MIC by TDT [9] [µg/mL] | MIC by TDT [10] [µg/mL] | Antibacterial activity (in words) [11] | MIC by TDT (Escherichia coli Juhl) [µg/mL] | MIC by TDT [12] [µg/mL] | Dye-uptake assay, Activity vs HSV-1 (ID50) [3] [µg/mL] | MIC by TDT (Proteus mirabilis A9554) [µg/mL] | Plaque reduction assay, Activity vs HSV-1 (ID50) [13] [µg/mL] | further results
Cc1c(N)nc([C@H](CC(N)=O)NC[C@H](N)C(N)=O)nc1C(=O)N[C@H](C(=O)N[C@H](C)[C@@H](O)CC(=O)N[C@H](C(=O)NC(O[C@@H]1O[C@@H](C)[C@@H](N)[C@@H](O)[C@H]1O)C(O)c1nc(-c2nc(C(=O)NCCCC(N)CC(=O)NCCCNCCCCN)cs2)cs1)[C@@H](C)O)[C@H](O[C@@H]1O[C@@H](CO)[C@@H](O)[C@H](O)[C@@H]1O[C@H]1O[C@H](CO)[C@@H](O)[C@H](OC(N)=O)[C@@H]1O)c1c[nH]cn1 (stereo partly shown) [BU-2231 A] | active | show activity |  |  |  |  |  |  |  |  |  |  |  |  |  | 
Cc1c(N)nc([C@H](CC(N)=O)NC[C@@H](N)C(N)=O)nc1C(=O)N[C@H](C(=O)N[C@H](C)[C@@H](O)CC(=O)N[C@@H](C(=O)NC(O[C@@H]1O[C@@H](C)[C@@H](N)[C@@H](O)[C@H]1O)C(O)c1nc(-c2nc(C(=O)NCCCNCCCCN)cs2)cs1)[C@@H](C)O)C(O[C@@H]1O[C@@H](CO)[C@H](O)[C@@H](O)[C@@H]1O[C@H]1O[C@H](CO)[C@@H](O)[C@@H](OC(N)=O)[C@@H]1O)c1cnc[nH]1 (stereo partly shown) [BU-2231 B] | active | show activity |  |  |  |  |  |  |  |  |  |  |  |  |  | 
NCC[C@@H](N)C(=O)O [D-α,γ-DAB, D-α,γ-diaminobutyric acid] |  |  |  |  |  |  |  |  |  |  |  |  |  |  |  | IC50 ([3]; Human alphaherpesvirus 1, Vero, partial hydrolyzates of BU-2231V, read-out: Anti-HSV-1 activity ID50): > 660 µg/mL
α-poly-L-lysine [α-Poly-L-lysine (MW: 3,500)] |  |  | 100 | 12.5 | 12.5 | 25 | > 100 | > 100 | > 100 | moderate inhibitory activity | 12.5 | > 100 | 100 | 50 | 42 | Antibacterial activity (in words) ([11]; listed as α-poly-L-lysines): little weaker than others; Antiviral activity (in words) ([13]; listed as lower molecular α-poly-L-lysine): least active
α-poly-L-lysine [α-Poly-L-lysine (MW: 25,000)] |  |  |  |  |  |  |  |  |  |  |  |  | > 20 |  | 1.8 | Antiviral activity (in words) ([13]; listed as higher molecular α-poly-L-lysine): slightly less active than BU-2231 V
ε-poly-L-lysine |  |  | 12.5 | 6.3 | 6.3 | 6.3 | 25 | 50 | 12.5 | moderate inhibitory activity; also recorded: comparable | 6.3 | 25 | 2.7 | 6.3 | 2.6 | Antiviral activity (in words) ([3]; HSV-1): comparably active; Plaque reduction assay, Cytotoxicity vs Vero cell (TCID50) (Vero cell [14]): 70 µg/mL; Antiviral activity (in words) [13]: slightly less active than BU-2231 V; Dye-uptake assay, Cytotoxicity vs Vero cell (TCID50) (Vero cell [15]): > 100 µg/mL
